Values of other authors, collected in patent publication US6562588B2, “Sialidase and recombinant cell lines” (Genentech, Inc., priority 1993, dated 2003).
pKi: −log10 of the molar value. Like-named read-outs stand apart in the source and are kept apart here.

What was measured:
[1] = target: cytosolic sialidase from rat muscle (Rattus norvegicus, UniProt Q64627); settings: read-out: Ki, rat muscle sialidase (Cytosol)
[2] = system: plasma membrane sialidase (Adenovirus Transformed Kidney Cells); settings: read-out: Ki, adenovirus transformed kidney cell sialidase (Plasma Membrane)
[3] = target: T1, lysosomal sialidase (Fibroblasts) (Homo sapiens, UniProt Q99519); settings: read-out: Ki, fibroblast sialidase (Lysosome)
T1 construct: host or cells: fibroblasts

cytosolic sialidase from rat muscle, sequence (Q64627 whole entry): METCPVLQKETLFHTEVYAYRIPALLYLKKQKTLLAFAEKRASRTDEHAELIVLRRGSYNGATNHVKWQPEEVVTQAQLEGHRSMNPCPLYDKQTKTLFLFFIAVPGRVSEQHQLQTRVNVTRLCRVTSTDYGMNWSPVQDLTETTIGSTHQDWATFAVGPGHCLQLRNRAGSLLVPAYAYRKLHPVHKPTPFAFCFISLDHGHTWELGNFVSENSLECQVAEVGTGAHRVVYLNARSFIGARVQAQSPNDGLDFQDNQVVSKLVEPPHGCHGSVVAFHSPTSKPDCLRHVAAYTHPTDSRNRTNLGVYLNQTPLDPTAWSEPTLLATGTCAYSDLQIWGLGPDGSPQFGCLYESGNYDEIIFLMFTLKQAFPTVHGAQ

| pKi ([1]; 4-MU-Neu5Ac as substrate, previously reported data) | Structure (SMILES) | pKi [1] | pKi [2] | pKi [3] |
| --- | --- | --- | --- | --- |
|  | CC(=O)N[C@H]1[C@H]([C@H](O)[C@H](O)CN=[N+]=[N-])OC(C(=O)O)=C[C@@H]1O [9-Azido Neu5Ac2en, 5-acetamido-2,6-anhydro-9-azido-3,5,9-trideoxy-D-glycero-D-galacto-non-2-enonic acid] | 4.30 | 5.00 | 5.00 |
| < 4.30 | CC(=O)N[C@H]1[C@H]([C@H](O)[C@H](O)CSc2ccc(N=[N+]=[N-])cc2[N+](=O)[O-])OC(C(=O)O)=C[C@@H]1O [9-S-PANP Neu5Ac2en, 9-S-(4′-azido-2′-nitro-phenyl)-5-acetamido-2,6 anhydro-9-thio-2,5,9-trideoxy-D-glycero-D-galacto-non-2-enonic acid] |  |  |  |
